# Assay results taken from patent US8604038B2, “Pyrrolidine derived beta 3 adrenergic receptor agonists” (Merck Sharp & Dohme Corp., priority 2009, dated 2013).
# System: rats
# Assay: not given
# Settings: intravenous administration, cystometric studies; cited from earlier work
Structure (SMILES),bladder capacity,micturition interval,residual urine volume
C[C@H](Cc1ccc2c(c1)OC(C(=O)[O-])(C(=O)[O-])O2)NC[C@H](O)c1cccc(Cl)c1.[Na+].[Na+] [CL316243],increases bladder capacity,prolongation of micturition interval,without increasing residual urine volume

# Same assay, conditions: intravenous administration; cited from earlier work
row,Structure (SMILES),bladder pressure
1,C[C@H](Cc1ccc2c(c1)OC(C(=O)[O-])(C(=O)[O-])O2)NC[C@H](O)c1cccc(Cl)c1.[Na+].[Na+] [CL316243],reduces bladder pressure

# Target: T1, human β3 adrenergic receptor (Homo sapiens, UniProt P13945)
# T1 construct: expressed in transfected cells; host or cells: CHO (Chinese hamster ovary) cells, stably transfected
# T1 sequence (P13945 whole entry): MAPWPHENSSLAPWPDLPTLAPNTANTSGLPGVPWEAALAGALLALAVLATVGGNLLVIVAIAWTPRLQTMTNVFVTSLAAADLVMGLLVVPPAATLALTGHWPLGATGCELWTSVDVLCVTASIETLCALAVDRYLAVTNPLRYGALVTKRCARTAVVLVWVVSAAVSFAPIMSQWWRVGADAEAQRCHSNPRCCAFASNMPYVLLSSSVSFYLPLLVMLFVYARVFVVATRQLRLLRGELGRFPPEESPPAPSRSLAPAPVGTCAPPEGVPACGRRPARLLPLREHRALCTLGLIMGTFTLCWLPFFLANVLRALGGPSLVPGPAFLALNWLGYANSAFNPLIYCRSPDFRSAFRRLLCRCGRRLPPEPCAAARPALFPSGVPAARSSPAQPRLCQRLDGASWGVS
# Assay: Beta-3 agonist in vitro functional assay (cAMP production, LANCE, transfected CHO cells)
# Assay type: cell-based
# Settings: Table 3, CHO cells with cloned β3 receptor, ligands titrated 10^-12 M to 10^-5 M, read-out: Human β3 agonist functional activity
# Protocol: Functional Assay: For compounds in examples 1-50, cAMP production in response to ligand is measured according to Barton, et al. (1991, Agonist-induced desensitization of D2 dopamine receptors in human Y-79 retinoblastoma cells. Mol. Pharmacol. […]:650-658) modified as follows. The cAMP production is measured using a homogenous time-resolved fluorescence resonance energy transfer immunoassay (LANCE™, Perkin Elmer) according to the manufacture's instructions. Chinese hamster ovary (CHO) cells, stably transfected with the cloned β-adrenergic receptor (β1, β2 or β3) are harvested after 3 days of subculturing. Harvesting of cells is done with Enzyme-free Dissociation Media (Specialty Media). Cells are then counted and resuspended in assay buffer (Hank's Balanced salt solution supplemented with 5 mM HEPES, […]) containing a phosphodiesterase inhibitor (IBMX, 0.6 mM). The reaction is initiated by mixing 6,000 cells in 6 μL with 6 μL Alexa Fluor labeled cAMP antibody (LANCE™ kit) which is then added to an assay well containing 12 μL of compound (diluted in assay buffer to 2× final concentration). The reaction proceeds for 30 minutes at RT and is terminated by the addition of 24 ul detection buffer (LANCE™ kit). The assay plate is then incubated for 1 h at RT and time-resolved fluorescence measured on a Perkin Elmer Envision reader or equivalent. The unknown cAMP level is determined by comparing fluorescence levels to a cAMP standard curve.
# The non-selective, full agonist β-adrenergic ligand isoproterenol is used at all three receptors to determine maximal stimulation. The human β3 adrenergic receptor (AR) selective ligand (S)-N-[4-[2-[[2-hydroxy-3-(4-hydroxyphenoxy)propyl]amino]ethyl]-phenyl]-4-iodobenzenesulfonamide is used as a control in all assays. […] The EC50 is defined as the concentration of compound that gives 50% activation of its own maximum. Data are analyzed using Microsoft Excel and Graphpad Prism or an internally developed data analysis software package.
# The EC50 is defined as the concentration of compound that gives 50% activation of its own maximum. Functional antagonist assays are performed similar to described above; however, unknown ligands are titrated at β-adrenergic receptor subtypes 1 and 2 at a final concentration in the assay of 10^-12 M to 10^-5 M in the presence of 10^-9 M full agonist β-adrenergic ligand isoproterenol. The EC50 is defined as the concentration of compound that gives 50% inhibition of the full agonist response. Data are analyzed using Microsoft Excel and Graphpad Prism or an internally developed data analysis software package.
row,Structure (SMILES),EC50 [nM]
1,CN(Cc1nc2ccsc2c(=O)[nH]1)C(=O)c1ccc(C[C@@H]2CC[C@H]([C@H](O)c3ccccc3)N2)cc1 [Example 114],1 to 9.9
2,CCN(CCN)C(=O)c1ccc(C[C@@H]2CC[C@H]([C@H](O)c3ccccc3)N2)cc1 [Example 115],100 to 999
3,Cc1cnc(CN(CC(C)C)C(=O)c2ccc(C[C@@H]3CC[C@H]([C@H](O)c4ccccc4)N3)cc2)s1 [Example 116],10 to 99.9
4,CN(C(=O)c1ccc(C[C@@H]2CC[C@H]([C@H](O)c3ccccc3)N2)cc1)C1CCOC1 (stereo partly drawn) [Example 117],100 to 999
5,CN(Cc1nccs1)C(=O)c1ccc(C[C@@H]2CC[C@H]([C@H](O)c3ccccc3)N2)cc1 [Example 118],100 to 999
6,CN(CCC1CCCCO1)C(=O)c1ccc(C[C@@H]2CC[C@H]([C@H](O)c3ccccc3)N2)cc1 (stereo partly drawn) [Example 119],100 to 999
7,Cc1ccc(OCCN(C)C(=O)c2ccc(C[C@@H]3CC[C@H]([C@H](O)c4ccccc4)N3)cc2)cc1 [Example 120],1000 to 3000
8,CCN(Cc1ccccn1)C(=O)c1ccc(C[C@@H]2CC[C@H]([C@H](O)c3ccccc3)N2)cc1 [Example 121],100 to 999
9,Cc1csc(CN(C)C(=O)c2ccc(C[C@@H]3CC[C@H]([C@H](O)c4ccccc4)N3)cc2)n1 [Example 123],100 to 999
10,CN(Cc1cccnc1Cl)C(=O)c1ccc(C[C@@H]2CC[C@H]([C@H](O)c3ccccc3)N2)cc1 [Example 124],10 to 99.9
11,CN(Cc1ncc(Cl)cn1)C(=O)c1ccc(C[C@@H]2CC[C@H]([C@H](O)c3ccccc3)N2)cc1 [Example 125],100 to 999
12,Cc1cccn2cc(CN(C)C(=O)c3ccc(C[C@@H]4CC[C@H]([C@H](O)c5ccccc5)N4)cc3)nc12 [Example 126],100 to 999
13,CN(CC1CCCO1)C(=O)c1ccc(C[C@@H]2CC[C@H]([C@H](O)c3ccccc3)N2)cc1 (stereo partly drawn) [Example 127],100 to 999
14,CC(c1cccnc1)N(C)C(=O)c1ccc(C[C@@H]2CC[C@H]([C@H](O)c3ccccc3)N2)cc1 (stereo partly drawn) [Example 128],1 to 9.9
15,CCN(Cc1cccnn1)C(=O)c1ccc(C[C@@H]2CC[C@H]([C@H](O)c3ccccc3)N2)cc1 [Example 129],100 to 999
16,O=C(c1ccc(C[C@@H]2CC[C@H]([C@H](O)c3ccccc3)N2)cc1)N(Cc1cccnn1)C1CC1 [Example 130],100 to 999
17,COCCCN(Cc1cccnn1)C(=O)c1ccc(C[C@@H]2CC[C@H]([C@H](O)c3ccccc3)N2)cc1 [Example 131],100 to 999
18,CN(Cc1csc(N)n1)C(=O)c1ccc(C[C@@H]2CC[C@H]([C@H](O)c3ccccc3)N2)cc1 [Example 132],100 to 999

# Same assay, conditions: given as a range, CHO cells with cloned β3 receptor, read-out: human Beta-3 agonist functional activity
row,Structure (SMILES),EC50 [nM]
1,"CN(C)C(=O)c1ccc(C[C@@H]2CC[C@H](C(O)c3ccc(N)nc3)N2)cc1 (stereo partly drawn) [Example 133, 4-({(2S,5R)-5-[(6-aminopyridin-3-yl)(hydroxy)methyl]pyrrolidin-2-yl}methyl)-N,N-dimethylbenzamide]",10 to 99.9
2,"CN(CCc1ccccn1)C(=O)c1ccc(C[C@@H]2CC[C@H]([C@H](O)c3ccccc3)N2)cc1 [Example 134, 4-({(2S,5R)-5-[(R)-hydroxy(phenyl)methyl]pyrrolidin-2-yl}methyl)-N-methyl-N-[2-(pyridin-2-yl)ethyl)benzamide]",10 to 99.9
3,"CN(Cc1ccccc1F)C(=O)c1ccc(C[C@@H]2CC[C@H]([C@H](O)c3ccccc3)N2)cc1 [Example 135, N-(2-fluorobenzyl)-4-({(2S,5R)-5-[(R)-hydroxy(phenyl)methyl]pyrrolidin-2-yl}methyl)-N-methylbenzamide]",10 to 99.9
4,"CN(Cc1cccc(N)n1)C(=O)c1ccc(C[C@@H]2CC[C@H]([C@H](O)c3ccccc3)N2)cc1 [Example 136, N-[(6-aminopyridin-2-yl)methyl]-4-({(2S,5R)-5-[(R)-hydroxy(phenyl)methyl]pyrrolidin-2-yl}methyl)-N-methylbenzamide]",< 1
5,CC(c1ccccn1)N(C)C(=O)c1ccc(CC2CC[C@H]([C@H](O)c3ccccc3)N2)cc1 (stereo partly drawn) [Example 137],100 to 999
